# Assay results as given in patent US6083969A, “1,3- and 2,3-diarylcycloalkano and cycloalkeno pyrazoles as selective inhibitors of cyclooxygenase-2 and antiinflammatory agents” (Ortho-McNeil Pharaceutical, Inc., priority 1999, dated 2000).
# Legend:
# COX-1 [1] = target: T1, COX-1 (Homo sapiens, UniProt P23219); assay: Human platelet thromboxane B2 production (via COX-1); type: cell-based; details: @3 μM (superscript b); human platelets, TXB2 production; read-out: P5: COX 1 Human Platelet % Inhibition
# T1 construct: Remove the platelet-rich plasma (PRP) and dilute the PRP 1:20 with 0.9% NaCl; endogenous in cells; host or cells: human platelets (platelet-rich plasma of one volunteer)
# [2] = target: T2, human prostaglandin H2 synthase type II (COX-2) (Homo sapiens, UniProt P35354); assay: Human prostaglandin H2 synthase type II (COX-2) whole cell assay (ECV-304 cells, PGE2 by radioimmunoassay); type: cell-based; set-up: endogenous in cells; host or cells: ECV-304; details: for inhibition at 3 µM: @3 μM (superscript a); for inhibition at 3 µM / inhibition at 10 µM: read-out: P1: COX 2 Whole Cell % Inhibition; for IC50: read-out: P2: COX 2 Whole Cell IC50
# T2 sequence (P35354 18-604): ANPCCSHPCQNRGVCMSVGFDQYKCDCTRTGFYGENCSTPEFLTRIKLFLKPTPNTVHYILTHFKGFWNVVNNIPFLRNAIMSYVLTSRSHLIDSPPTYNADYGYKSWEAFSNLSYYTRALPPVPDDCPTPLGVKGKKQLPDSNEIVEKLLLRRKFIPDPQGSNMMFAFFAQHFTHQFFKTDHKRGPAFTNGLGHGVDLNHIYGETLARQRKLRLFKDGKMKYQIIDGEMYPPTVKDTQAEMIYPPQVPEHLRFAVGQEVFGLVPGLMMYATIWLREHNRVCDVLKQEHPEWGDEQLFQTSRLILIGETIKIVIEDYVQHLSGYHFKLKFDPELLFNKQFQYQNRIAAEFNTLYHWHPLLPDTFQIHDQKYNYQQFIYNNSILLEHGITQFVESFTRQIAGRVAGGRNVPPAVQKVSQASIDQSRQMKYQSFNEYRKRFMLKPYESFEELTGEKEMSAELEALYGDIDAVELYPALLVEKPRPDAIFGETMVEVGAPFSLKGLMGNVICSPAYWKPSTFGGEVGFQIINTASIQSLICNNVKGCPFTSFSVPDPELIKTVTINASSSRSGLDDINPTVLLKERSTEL
# Experimental: HUMAN PROSTAGLANDIN H2 SYNTHASE TYPE II (COX-2) WHOLE CELL ASSAY (MULTIPLE CONCENTRATIONS)
# Procedures 1 and 2 were used to determine the ability of the compounds to inhibit human prostaglandin H2 synthase type II (COX-2) in a whole cell assay at multiple concentrations as follows:
# Approximately 28 h later, […] PMA and […] ionomycin (both final concentrations) are added to each well and incubated for an additional 16 h. Vehicle or test compounds in the amount of […] are incubated with the cells for five minutes prior to initiation of COX-2 enzyme activity by the addition of 30 μM arachidonic acid. Ten minutes later, an aliquot of the supernatant is withdrawn and the amount of PGE2 present quantitated by radioimmunoassay. Activity, reported as percent inhibition of PGE2 produced, is calculated as follows: [formula]
# COX-1 [3] = target: T1, COX-1; assay: Human platelet thromboxane B2 production (via COX-1); type: cell-based; details: human platelets, TXB2 production; read-out: P5: COX 1 Human Platelet IC50
# Experimental: HUMAN […] THROMBOXANE B2 PRODUCTION (via COX-1)
# Procedure 5 was used to determine thromboxane B2 (TXB2) production (via COX-1) in human platelets as follows:
# Draw blood from one volunteer into heparinized tubes then spin at RT for 15 to 20 minutes at 1,000 RPM. Remove the platelet-rich plasma (PRP) and dilute the PRP 1:20 with 0.9% NaCl containing 14.4U heparin/mL. Add 180 μL of the diluted PRP to each well of a 96-well plate and incubate at 37° C. for 5 minutes. Then add 20 μL vehicle (HBSS with 1% DMSO) or drug and incubate for 15 minutes at 37° C. Add 10 μl calcium ionophore and incubate 15 minutes at 37° C. Stop the reaction on slush ice for 5 minutes and assay supernatants immediately for TXB2 production via RIA or EIA.
# Prepare all drugs at 10 mM in DMSO by diluting the drug in HBSS at a 1.100 ratio with 1% DMSO to 100 μM. Add 20 μl to PRP (1:10 ratio) to obtain 10 μM final concentration. The calcium ionophore is prepared by using 7 mg/mL free acid calcium ionophore in DMSO, which is warmed until the ionophore goes into solution. Just prior to use, dilute the solution 1:25 with HBSS.
# [4] = target: T3, human prostaglandin H2 synthase type I (COX-1) (Homo sapiens, UniProt P23219); assay: Human prostaglandin H2 synthase type I (COX-1) homogenate assay (transfected COS-7 cells, PGE2 formation); type: biochemical; details: COS-7 homogenate; for inhibition at 10 µM: read-out: P6: COX 1 Homogenized Cell % Inhibition
# T3 construct: expressed in transfected cells; host or cells: COS-7 (African Green Monkey Kidney)
# Experimental: HUMAN PROSTAGLANDIN H2 SYNTHASE--TYPE I (COX-1) HOMOGENATE ASSAY (SINGLE CONCENTRATION)
# Procedures 6 and 7 were used to assess COX-1 activity in a homogenized cell assay as follows:
# (§1) COS-7 (African Green Monkey Kidney) cells are maintained in a suitable medium, and are trypsinized and plated at a density of 1×10^6 cells/well of a 6 well plate prior to assay. Approximately 24 hours later, cells are transiently transfected with a plasmid containing the human COX-1 gene using the lipofectamine method. Two days later, the cell-free homogenate is prepared by subjecting the cells to a polytron followed by centrifugation at 9,000×g. COX activity, initiated by the addition of […] arachidonic acid to the 9,000×g supernatant, is monitored in the presence of vehicle or drug. Product (PGE2) formation is quantitated by radioimmunoassay. Activity, reported as percent inhibition of PGE2 produced, is calculated as follows: [formula]
# [5] = target: T2, human prostaglandin H2 synthase type II (COX-2); assay: Human prostaglandin H2 synthase type II (hCOX-2) homogenate assay (transfected COS-7 cells, PGE2 formation); type: biochemical; set-up: expressed in transfected cells; host or cells: COS-7 (African Green Monkey Kidney); details: for inhibition at 10 µM: read-out: P3: COX 2 Homogenized Cell % Inhibition; for IC50: read-out: P4: COX 2 Homogenized Cell IC50
# Experimental: HUMAN PROSTAGLANDIN H2 SYNTHASE TYPE II (hCOX-2) HOMOGENATE ASSAY (SINGLE CONCENTRATION)
# Procedures 3 and 4 were used to assess COX-2 activity in a homogenized cell assay as follows:
# as §1, with “COX-2” for “COX-1”
# T1 sequence (P23219 24-599): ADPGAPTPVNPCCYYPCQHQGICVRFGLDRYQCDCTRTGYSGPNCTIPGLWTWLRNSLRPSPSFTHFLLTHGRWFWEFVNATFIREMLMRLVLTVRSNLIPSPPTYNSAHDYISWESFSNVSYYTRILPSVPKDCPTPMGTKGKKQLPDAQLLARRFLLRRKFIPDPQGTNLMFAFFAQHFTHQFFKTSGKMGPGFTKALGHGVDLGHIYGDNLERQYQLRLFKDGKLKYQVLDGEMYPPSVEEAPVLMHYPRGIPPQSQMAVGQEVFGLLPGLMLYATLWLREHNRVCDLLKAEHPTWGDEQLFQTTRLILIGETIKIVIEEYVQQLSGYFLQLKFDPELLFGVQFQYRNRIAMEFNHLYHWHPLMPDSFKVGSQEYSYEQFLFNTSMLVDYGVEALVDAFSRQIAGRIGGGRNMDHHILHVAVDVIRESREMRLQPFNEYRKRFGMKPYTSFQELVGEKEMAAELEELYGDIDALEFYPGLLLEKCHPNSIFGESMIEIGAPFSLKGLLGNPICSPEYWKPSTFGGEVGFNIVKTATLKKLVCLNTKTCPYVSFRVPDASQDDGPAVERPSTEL
# T3 sequence (P23219 24-599): as above
SMILES,inhibition at 3 µM (COX-1 [1]) [%],inhibition at 3 µM [2] [%],IC50 (COX-1 [3]) [nM],inhibition at 10 µM [4] [%],"inhibition at 10 µM ([5]; @10 μM, COS-7 homogenate) [%]",IC50 [2] [nM],also measured
"CS(=O)(=O)c1ccc(-n2nc(-c3ccc(Cl)cc3)c3c2CCCCC3)cc1 [Example 10, 3-(4-Chlorophenyl)-1-(4-methylsulfonylphenyl)-cycloheptano-[1,2-d]-pyrazole]",,,10000,24,26,,inhibition at 10 µM [2]: 5%
"Cc1ccc(-n2nc(-c3ccc(Cl)cc3)c3c2CCCCC3)cc1 [Example 11, 3-(4-Chlorophenyl)-1-(4-methylphenyl)-cycloheptano-[1,2-d]-pyrazole]",,,,74,,640,inhibition at 10 µM [5]: 40%
"COc1ccc(-n2nc(-c3ccc(Cl)cc3)c3c2CCCCC3)cc1 [Example 8, 3-(4-Chlorophenyl)-1-(4-methoxyphenyl)-cycloheptano-[1,2-d]-pyrazole]",,,,25,92,1560,IC50 ([4]; read-out: P7: COX 1 Homogenized Cell IC50): 5300 nM; IC50 ([5]; COS-7 homogenate): 380 nM
"COc1ccc(-n2nc(-c3ccc(F)cc3)c3c2CCCCC3)cc1 [Example 9, 3-(4-Fluorophenyl)-1-(4-methoxyphenyl)-cycloheptano-[1,2-d]-pyrazole]",,,> 10000,64,,2510,IC50 ([5]; COS-7 homogenate): 2500 nM

# Further lines, with some results ahead:
inhibition at 3 µM (COX-1 [1]) [%],inhibition at 3 µM [2] [%],IC50 (COX-1 [3]) [nM],inhibition at 10 µM [4] [%],"inhibition at 10 µM ([5]; @10 μM, COS-7 homogenate) [%]",IC50 [2] [nM],SMILES,also measured
35,87,,,,,CCOc1ccc2c(-c3ccc(F)cc3)nn(-c3ccc(S(C)(=O)=O)cc3)c2c1 [Example 32j],
22,29,,,,,Fc1ccc(-n2nc(-c3ccc(Cl)cc3)c3ccc4[nH]c5ccc(F)cc5c4c32)cc1 [Example 32k],
,,> 10000,32,6,> 10000,"CS(=O)(=O)c1ccc(-n2nc(-c3ccc(F)cc3)c3c2C=CCC3)cc1 [Example 5a, 3-(4-Fluorophenyl)-4,5-dihydro-1-(4-methylsulfonylphenyl)-1H-indazole]",inhibition at 10 µM [2]: 9%
24,,,,,610,CS(=O)(=O)c1ccc(-n2nc3c(c2-c2ccc(C(F)(F)F)cc2)CCC=C3)cc1 [Example 32c],
6,66,,,,,CS(=O)(=O)c1ccc(C(=O)C2CC(=O)CCC2=O)cc1 (centres unmarked) [Example 29f],
